From patent US12522583B2, “Benzimidazole derivatives and aza-benzimidazole derivatives as Janus kinase 2 inhibitors and uses thereof” (Dana-Farber Cancer Institute, Inc., priority 2018, dated 2026)

target: JAK2 (Homo sapiens (Human), UniProt O60674); assay: JAK2 Z-Lyte biochemical assay; conditions: not given
Procedure: Example 3. JAK2 Z-Lyte Biochemical Assay of the Compounds of the Present Disclosure
The JAK2 Z-Lyte biochemical assay was performed according to manufacturer's instructions (Life Technologies).

JAK2, sequence (O60674 whole entry): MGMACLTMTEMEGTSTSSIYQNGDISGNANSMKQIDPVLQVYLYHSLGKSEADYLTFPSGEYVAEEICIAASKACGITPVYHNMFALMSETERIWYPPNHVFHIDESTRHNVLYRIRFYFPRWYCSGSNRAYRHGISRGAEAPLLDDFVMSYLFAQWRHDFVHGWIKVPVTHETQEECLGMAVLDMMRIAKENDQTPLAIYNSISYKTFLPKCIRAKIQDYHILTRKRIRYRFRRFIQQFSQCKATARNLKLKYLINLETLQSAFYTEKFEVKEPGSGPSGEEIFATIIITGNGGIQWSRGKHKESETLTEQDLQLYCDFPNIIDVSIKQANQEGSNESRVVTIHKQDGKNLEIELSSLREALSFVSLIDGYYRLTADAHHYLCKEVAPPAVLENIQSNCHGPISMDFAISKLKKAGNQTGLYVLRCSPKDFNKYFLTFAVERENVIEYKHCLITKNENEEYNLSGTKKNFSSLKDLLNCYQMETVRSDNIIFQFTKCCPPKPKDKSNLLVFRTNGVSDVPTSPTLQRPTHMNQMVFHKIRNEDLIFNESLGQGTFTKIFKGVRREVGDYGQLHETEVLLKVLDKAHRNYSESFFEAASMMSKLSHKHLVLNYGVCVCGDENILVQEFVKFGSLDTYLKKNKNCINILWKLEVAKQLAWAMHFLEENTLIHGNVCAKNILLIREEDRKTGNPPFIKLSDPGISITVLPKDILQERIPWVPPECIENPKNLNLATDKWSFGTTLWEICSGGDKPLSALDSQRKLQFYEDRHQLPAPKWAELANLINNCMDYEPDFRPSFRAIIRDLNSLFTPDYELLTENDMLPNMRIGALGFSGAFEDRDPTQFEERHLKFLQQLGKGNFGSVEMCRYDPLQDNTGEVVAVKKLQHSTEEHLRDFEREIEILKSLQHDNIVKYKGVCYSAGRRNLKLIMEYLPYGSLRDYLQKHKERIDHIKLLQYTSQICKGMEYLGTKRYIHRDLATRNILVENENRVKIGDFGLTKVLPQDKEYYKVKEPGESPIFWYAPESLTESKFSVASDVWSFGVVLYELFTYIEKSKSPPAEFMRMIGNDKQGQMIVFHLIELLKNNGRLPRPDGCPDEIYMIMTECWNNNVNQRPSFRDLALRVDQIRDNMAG

IC50 [µM]	SMILES
3.08	CC(=O)Nc1cc(Oc2ccc3nc(Nc4ccc(F)cc4F)n(C)c3c2)ccn1 [Compound I-1, N-(4-(2-(2,4-difluorophenylamino)-1-methyl-1H-benzo[d]imidazol-6-yloxy)pyridin-2-yl)acetamide]
0.957	CCN1CCN(Cc2cc(Nc3nc4ccc(Oc5ccnc(NC(C)=O)c5)cc4n3C)cc(C(F)(F)F)c2)CC1 [Compound I-3, N-(4-(2-(3-((4-ethylpiperazin-1-yl)methyl)-5-(trifluoromethyl)phenylamino)-1-methyl-1H-benzo[d]imidazol-6-yloxy)pyridin-2-yl)acetamide]
0.449	CC(=O)Nc1cc(Oc2ccc3nc(Nc4ccc(F)cc4F)[nH]c3c2C)ccn1 [Compound I-4, N-(4-(2-(2,4-difluorophenylamino)-4-methyl-1H-benzo[d]imidazol-5-yloxy)pyridin-2-yl)acetamide]
1.05	CCN1CCN(Cc2ccc(Nc3nc4ccc(Oc5ccnc(NC(C)=O)c5)c(C)c4[nH]3)cc2C(F)(F)F)CC1 [Compound I-5, N-(4-(2-(4-((4-ethylpiperazin-1-yl)methyl)-3-(trifluoromethyl)phenylamino)-4-methyl-1H-benzo[d]imidazol-5-yloxy)pyridin-2-yl)acetamide]
8.53	CCN1CCN(Cc2ccc(Nc3nc4cc(Oc5ccnc(NC(C)=O)c5)ccc4n3C)cc2C(F)(F)F)CC1 [Compound I-7, N-(4-(2-(4-((4-ethylpiperazin-1-yl)methyl)-3-(trifluoromethyl)phenylamino)-1-methyl-1H-benzo[d]imidazol-5-yloxy)pyridin-2-yl)acetamide]
0.0925	CC(=O)Nc1cc(Oc2ccc3c(c2)nc(Nc2ccc(F)cc2F)n3C)ccn1 [Compound I-8, N-(4-(2-(2,4-difluorophenylamino)-1-methyl-1H-benzo[d]imidazol-5-yloxy)pyridin-2-yl)acetamide]
2.14	CCN1CCN(Cc2cc(Nc3nc4cc(Oc5ccnc(NC(C)=O)c5)ccc4n3C)cc(C(F)(F)F)c2)CC1 [Compound I-9, N-(4-(2-(3-((4-ethylpiperazin-1-yl)methyl)-5-(trifluoromethyl)phenylamino)-1-methyl-1H-benzo[d]imidazol-5-yloxy)pyridin-2-yl)acetamide]
> 10	CC(=O)Nc1cc(Oc2ncc3[nH]c(Nc4ccc(F)cc4F)nc3n2)ccn1 [Compound I-10, N-(4-(8-(2,4-difluorophenylamino)-7H-purin-2-yloxy)pyridin-2-yl)acetamide]
> 10	CC(=O)Nc1cc(Oc2ccc3nc(Nc4ccc(F)cc4F)nn3c2)ccn1 [Compound I-11, N-(4-(2-(2,4-difluorophenylamino)-[1,2,4]triazolo[1,5-a]pyridin-6-yloxy)pyridin-2-yl)acetamide]
> 10	CC(=O)Nc1cc(Oc2ccc3nc(Nc4ccc(F)cc4F)n(C)c3n2)ccn1 [Compound I-12, N-(4-(2-(2,4-difluorophenylamino)-3-methyl-3H-imidazo[4,5-b]pyridin-5-yloxy)pyridin-2-yl)acetamide]
> 10	COC(=O)c1cc(Oc2ccc3nc(Nc4ccc(F)cc4F)n(C)c3n2)ccn1 [Compound I-13, Methyl 4-((2-((2,4-difluorophenyl)amino)-3-methyl-3H-imidazo[4,5-b]pyridin-5-yl)oxy) picolinate]
> 10	Cn1c(Nc2ccc(F)cc2F)nc2ccc(Oc3ccnc(C(=O)O)c3)nc21 [Compound I-14, 4-((2-((2,4-difluorophenyl)amino)-3-methyl-3H-imidazo[4,5-b]pyridin-5-yl)oxy)picolinic acid]
1.34	CCN1CCN(Cc2ccc(Nc3nc4ccc(Oc5ccnc(NC(C)=O)c5)nc4n3C)cc2C(F)(F)F)CC1 [Compound I-15, N-(4-((2-((4-((4-ethylpiperazin-1-yl)methyl)-3-(trifluoromethyl)phenyl)amino)-3-methyl-3H-imidazo[4,5-b]pyridin-5-yl)oxy)pyridin-2-yl)acetamide]
> 10	CCN1CCN(Cc2ccc(Nc3nc4nc(Oc5ccnc(NC(C)=O)c5)ncc4[nH]3)cc2C(F)(F)F)CC1 [Compound I-16, N-(4-((8-((4-((4-ethylpiperazin-1-yl)methyl)-3-(trifluoromethyl)phenyl)amino)-7H-purin-2-yl)oxy)pyridin-2-yl)acetamide]
6	CCN1CCN(Cc2ccc(Nc3nc4ccc(Oc5ccnc(NC(=O)C6CCOCC6)c5)cc4n3C)cc2C(F)(F)F)CC1 [Compound I-18, N-(4-(2-(4-((4-ethylpiperazin-1-yl)methyl)-3-(trifluoromethyl)phenylamino)-3-methyl-3H-benzo[d]imidazol-5-yloxy)pyridin-2-yl)-tetrahydro-2H-pyran-4-carboxamide]
8.03	CCN1CCN(Cc2ccc(Nc3nc4ccc(Oc5ccnc(NC(=O)C6CCN(C)CC6)c5)cc4n3C)cc2C(F)(F)F)CC1 [Compound I-19, N-(4-(2-(4-((4-ethylpiperazin-1-yl)methyl)-3-(trifluoromethyl)phenylamino)-3-methyl-3H-benzo[d]imidazol-5-yloxy)pyridin-2-yl)-1-methylpiperidine-4-carboxamide]
1.95	CCN1CCN(Cc2ccc(Nc3nc4ccc(Oc5ccnc(N)c5)cc4n3C)cc2C(F)(F)F)CC1 [Compound I-20, 6-(2-aminopyridin-4-yloxy)-N-(4-((4-ethylpiperazin-1-yl)methyl)-3-(trifluoromethyl)phenyl)-1-methyl-1H-benzo[d]imidazol-2-amine]
4.93	CCN1CCN(Cc2ccc(Nc3nc4ccc(Oc5ccnc(NC(=O)CCN(C)C)c5)cc4n3C)cc2C(F)(F)F)CC1 [Compound I-21, 3-(dimethylamino)-N-(4-(2-(4-((4-ethylpiperazin-1-yl)methyl)-3-(trifluoromethyl)phenylamino)-3-methyl-3H-benzo[d]imidazol-5-yloxy)pyridin-2-yl)propanamide]
> 10	CCN1CCN(Cc2ccc(Nc3nc4ccc(Oc5ccc(O)nc5)cc4n3C)cc2C(F)(F)F)CC1 [Compound I-22, 5-((2-((4-((4-ethylpiperazin-1-yl)methyl)-3-(trifluoromethyl)phenyl)amino)-1-methyl-1H-benzo[d]imidazol-6-yl)oxy)pyridin-2(1H)-one]
> 10	Cn1c(Nc2ccc(F)cc2F)nc2ccc(Oc3ccc(O)nc3)cc21 [Compound I-23]

test system: cell lines or patient-derived xenografts from patients with CRLF2-rearranged B-ALL; assay: not given; conditions: cited from earlier work

SMILES	IC50 [µM]
N#CC[C@H](C1CCCC1)n1cc(-c2ncnc3[nH]ccc23)cn1 [Ruxolitinib]	> 20
